Laboratory results: patent US5747477A, “Azo derivatives of 5-aminosalicylic acid” (priority 1995, dated 1998)
Read-outs that look alike come from different tables or passages of the source.

Key:
[1] = test system: platelet aggregation induced by PAF; experiment: Test 1-Inhibition of platelet aggregation induced by PAF (C18-PAF, 15 nM); format: cell-based, male New Zealand rabbits; conditions: rabbit platelet rich plasma, 15 nM C18-PAF, read-out: IC50 (concentration of drug required to inhibit platelet aggregatory response by 50%)
Experimental: Test 1-Inhibition of platelet aggregation induced by PAF.
Platelet rich plasma (PRP) was prepared by centrifuging the blood at 250xg for 10 min. at 4° C. PRP was diluted with platelet-poor plasma (PPP) obtained by further centrifuging at 3000xg for 10 min. The platelet count was adjusted to 3×10^5 cells/mm^3.

[2] = test system: PAF-induced hypotension in normotensive rats; experiment: Test 2- Inhibition of PAF-induced hypotension in normotensive rats; format: in vivo, Male Sprague-Dawley rats; conditions: intravenous, 3 min. before PAF (0.5 μg/Kg); for ED50: Rattus norvegicus, 0.05 h, read-out: ID50 (dose of test compound required to inhibit hypotension by 50%)
Experimental: Test 2- Inhibition of PAF-induced hypotension in normotensive rats.
Male Sprague-Dawley rats, weighing 180-220 g, were anesthetized with sodium pentobarbital (50 mg/Kg i.p.). Blood pressure was recorded from the left carotid artery using a Statham pressure transducer coupled to a Beckman R611 recorder. Right and left femoral veins were catheterized to inject test compounds and PAF (0.5 μg/Kg). Test compounds were administered by intravenous injection (1 mL/Kg, dissolved in saline) 3 min. before PAF.
Blood pressure was monitored and percent inhibition of PAF-induced hypotension with respect to controls was calculated.

ulcerative colitis = conditions: cited from earlier work; for active moiety in ulcerative colitis: Azad Khan et al., Lancet 1977
[3] = after absorption from the colon; cited from earlier work

IC50 ([1]; Oryctolagus cuniculus) [nM] | Compound | ED50 [2] [mg/kg] | other results
19 | Cc1nc2cnccc2n1CC1CCN(C(=O)CC(C)(C)c2ccc(N)cc2)CC1 [A, 1-[[1-[3-(4-Aminophenyl)-3-methylbutanoyl]-4-piperidyl]methyl]-1H-2-methylimidazo[4,5-c]pyridine] | 0.099 | –
– | Cc1nc2cnccc2n1CC1CCN(C(=O)/C=C(/c2ccccc2)c2ccc(N)cc2)CC1 [B, cis-1-[[1-[3-(4-Aminophenyl)-3-phenylpropenoyl]-4-piperidyl]methyl]-1H-2-methylimidazo[4,5-c]pyridine] | – | IC50 [1]: 18 nM; ID50 (dose of test compound required to inhibit hypotension by 50%) [2]: 0.029 mg/kg
– | Cc1nc2cnccc2n1CC1CCN(C(=O)/C=C(\c2ccccc2)c2ccc(N)cc2)CC1 [C, trans-1-[[1-[3-(4-Aminophenyl)-3-phenylpropenoyl]-4-piperidyl]methyl]-1H-2-methylimidazo[4,5-c]pyridine] | – | IC50 [1]: 5 nM; ID50 (dose of test compound required to inhibit hypotension by 50%) [2]: 0.01 to 0.025 mg/kg
– | Nc1ccc(O)c(C(=O)O)c1 [Compound 5-ASA, 5-aminosalicylic acid] | – | active moiety in ulcerative colitis (ulcerative colitis): in ulcerative colitis the active moiety is 5-ASA
75 | Cc1nc2cnccc2n1CC1CCN(C(=O)CN(c2ccccc2)S(=O)(=O)c2ccc(N)cc2)CC1 [D] | 0.088 | –
30 | CCOC(=O)[C@H](CC(C)C)N(C(=O)c1ccc(N)cc1)S(=O)(=O)c1ccc(Cn2c(C)nc3cnccc32)cc1 [E, N-(4-Aminobenzoyl)-N-[4-(1H-2-methylimidazo[4,5-c]pyridylmethyl)phenylsulfonyl]-L-leucine ethyl ester] | 0.15 | –
12 | CCOC(=O)[C@H](CC(C)C)N(Cc1ccc(N)cc1)S(=O)(=O)c1ccc(Cn2c(C)nc3cnccc32)cc1 [F, N-(4-Aminobenzyl)-N-[4-(1H-2-methylimidazo[4,5-c]pyridylmethyl)-phenylsulfonyl]-L-leucine ethyl ester] | 0.033 | –
16 | CCOC[C@H](CC(C)C)N(Cc1ccc(N)cc1)S(=O)(=O)c1ccc(Cn2c(C)nc3cnccc32)cc1 [G, N-(4-Aminobenzyl)-N-[(S)-1-isobutyl-2-ethoxyethyl]-4-(1H-2-methylimidazo[4,5-c]pyridylmethyl)phenylsulfonamide] | 0.14 | –
– | Nc1ccc(S(=O)(=O)Nc2ccccn2)cc1 [Sulfapyridine, sulfapyridine] | – | metabolism and excretion [3]: metabolised and excreted in the urine; active moiety in ulcerative colitis (ulcerative colitis): acts only as a carrier; side effects of sulfasalazine ascribed to the moiety (ulcerative colitis; Das et al., New Engl. J. Med. 1973): Most of the side effects of sulfasalazine have been ascribed to the sulfapyridine moiety
